Columns and labels:
[1] = tested on: brown adipose tissue (BAT); experiment: Energy expenditure and brown adipose tissue (BAT) analysis in Fex-treated DIO mice; type: in vivo
Procedure: Mice were fed HFD for 14 weeks and then administered vehicle or fexaramine (100 mg/kg) daily by oral administration for 5 weeks with HFD. Data represent the mean±STD. Statistical analysis was performed with the Student's t test (*p<0.05, **p<0.01).
FIG. 6M is a bar chart showing the effect of fexaramine on respiratory exchange ratio (RER). Mice were fed on HFD for 14 weeks, and then administered daily oral injections of vehicle or fexaramine (100 mg/kg) for 5 weeks with HFD.
FIG. 6N is a bar graph showing the effect of fexaramine administration on serum lactate concentrations. Mice were fed on HFD for 14 weeks, and then administered daily oral injections of vehicle or fexaramine (100 mg/kg) for 5 weeks with HFD. […] Data represent the mean±STD. Statistical analysis was performed with the Student's t test (*p<0.05, **p<0.01).
(FIG. 6E). […] Gene expression analysis confirmed the induction of ERRγ, PGC-1α, and PGC-1β, as well as a number of their target genes involved in thermogenesis, mitochondrial biogenesis, and fatty acid oxidation in BAT (FIG. 6G).

[2] = tested on: FGF15 signaling and bile acid composition; experiment: FGF15 signaling, hepatic bile acid genes, serum bile acid composition and intestinal barrier in Fex-treated HFD mice; type: in vivo
Procedure: FIGS. 7A-7H show a comparative expression chart and bar charts illustrating that fexaramine increased endogenous FGF15 signaling and changes in BA composition. Mice were fed HFD for 14 weeks and then administered daily oral injections of vehicle or fexaramine (100 mg/kg) for 5 weeks with HFD. In the bar graphs, open bars represent vehicle treatment and solid bars represent fexaramine treatment, and data represent the mean±STD. Statistical analysis was performed with the Student's t test (*p<0.05, **p<0.01).
FIG. 8 is a bar graph showing hepatic Cyp7a1 levels determined by ELISA. Data represent the mean±SD. Statistical analysis was performed with the Student's t test. *p<0.05, **p<0.01.
Mice fed a HFD for 14 weeks were maintained on a HFD and treated with vehicle or fexaramine (100 mg/kg/day per os for 5 week). Serum bile acid composition was determined by mass spectrometry. N.D. not determined.
FXR activation has been reported to enhance mucosal defense gene expression and intestinal barrier function (Inagaki et al., Proc Natl Acad Sci USA 103:3920-3925, 2006; Gadaleta., et al. Gut 60:463-472, 2011).

[3] = tested on: TGR5 null mice; experiment: Fexaramine in HFD-fed TGR5-null mice; type: in vivo; details: 100 mg/kg/day PO 5 weeks
Procedure: HFD-fed TGR5-null mice were treated with vehicle or fexaramine (100 mg/kg os daily for 5 weeks with HFD, n=10). (A) Ileal FXR target gene expressions (B) Serum BA levels (C) Fasting glucose levels (D) Glucose tolerance test (E) Core body temperature (F) Oxygen consumption rate (G) Carbon dioxide production (H) Gene expression in BAT (I) Body weight curve (J) Body composition by MRI (K) Insulin Tolerance Test (L) Hepatic gene expression (M) Hepatic TG levels (N) and Gene expression in soleus of TGR5 knockout mice with and without fexaramine treatment. Data represent the mean±SD. Statistical analysis was performed with the Student's t test. *p<0.05, **p<0.01.
To address this possibility, HFD-fed TGR5 null mice were chronically treated with Fex (100 mg/kg/day PO for 5 weeks). […] In particular, the anti-lipogenic effects of Fex in the liver appear to require TGR5 activation, as key hepatic lipogenic genes and liver triglyceride content were not affected by Fex treatment (FIGS. 11L, 11M).

[4] = tested on: FXR-null mice; experiment: Fexaramine in HFD-fed FXR-null mice; type: in vivo; details: 100 mg/kg 5 weeks
Procedure: Data represent the mean±SD. Statistical analysis was performed with the Student's t test. *p<0.05, **p<0.01.

[5] = biological target: T1, human TGR5 (Homo sapiens, UniProt Q8TDU6); experiment: TGR5 cAMP-response element luciferase reporter in HEK293 cells; type: cell-based; details: HEK293 cells transfected with human TGR5, treated 5 hours
T1 construct: expressed in transfected cells; host or cells: HEK293
T1 sequence (Q8TDU6 1-330): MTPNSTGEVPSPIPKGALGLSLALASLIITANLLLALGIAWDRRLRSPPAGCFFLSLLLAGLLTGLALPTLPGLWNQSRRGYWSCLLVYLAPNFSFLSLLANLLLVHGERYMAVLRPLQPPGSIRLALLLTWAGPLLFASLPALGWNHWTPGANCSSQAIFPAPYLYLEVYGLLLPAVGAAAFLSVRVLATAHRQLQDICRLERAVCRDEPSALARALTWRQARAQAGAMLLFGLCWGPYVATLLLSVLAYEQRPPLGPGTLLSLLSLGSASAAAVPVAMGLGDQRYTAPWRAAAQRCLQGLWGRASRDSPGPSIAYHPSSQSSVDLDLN
Procedure: HEK293 cells were transfected with expression vectors for cAMP-response element luciferase, β-galactosidase and human TGR5. 24 hours after transfection, cells were treated with fexaramine or INT-777 (a TGR5 agonist)
at the indicated concentrations for 5 hours, prior to measurement of luciferase activity. Data represent the mean±SD. Statistical analysis was performed with the Student's t test. *p<0.05, **p<0.01.

[6] = DIO mice, 100 mg/kg PO 5 weeks, listed as fexaramine, 100 mg/kg

SMILES: COC(=O)/C=C/c1cccc(N(Cc2ccc(-c3ccc(N(C)C)cc3)cc2)C(=O)C2CCCCC2)c1 [Fex, fexaramine]
- OXPHOS gene expression changes in inguinal, gonadal and brown adipose depots (RNA-sequencing) ([1]; DIO mice, 100 mg/kg PO 5 weeks): selectively enhance OXPHOS activity only in BAT
- PKA activity in BAT ([1]; DIO mice, 100 mg/kg PO 5 weeks): increased PKA activity
- accumulation of lipid vesicles in BAT (histology) ([1]; DIO mice, 100 mg/kg PO 5 weeks): markedly reduced
- ambulatory counts (activity) ([1]; DIO mice, 100 mg/kg PO 5 weeks): more active than control mice
- carbon dioxide production (VCO2) ([1]; DIO mice, 100 mg/kg PO 5 weeks): exhaled more carbon dioxide
- gene expression of ERRγ, PGC-1α, PGC-1β and target genes in BAT ([1]; DIO mice, 100 mg/kg PO 5 weeks): induction
- oxygen consumption (VO2) ([1]; DIO mice, 100 mg/kg PO 5 weeks): consistently higher oxygen consumption
- phosphorylation level of p38 in BAT ([1]; DIO mice, 100 mg/kg PO 5 weeks): increased the phosphorylation level of p38
- serum lactate levels ([1]; DIO mice, 100 mg/kg PO 5 weeks, 100 mg/kg): significantly reduced
- respiratory exchange ratio (RER) [1, 6]: No changes were observed
- serum lactate levels [1, 6]: significantly decreased
- food intake ([1]; DIO mice, first week of treatment): not attributable to difference in food intake
- DIO2 (downstream target of TGR5) in BAT ([1]; oral Fex): induce DIO2
- FGF15 expression in intestine (RNA-Seq) ([2]; 100 mg/kg PO 5 weeks): dramatically up-regulated
- bile acid pool size (total serum BA levels) ([2]; 100 mg/kg PO 5 weeks): reducing the bile acid pool size
- ratio of unconjugated to conjugated cholic acid ([2]; 100 mg/kg PO 5 weeks): remarkably increased
- circulating FGF15 ([2]; 100 mg/kg PO 5 weeks, serum): increase in circulating FGF15
- expression of liver FXR target genes SHP and BSEP ([2]; chronic Fex treatment): not altered
- hepatic CYP7A1 expression (mRNA and protein) ([2]; chronic Fex treatment): significantly repressed
- hepatic expression of CYP8B1 and CYP27A1 ([2]; chronic Fex treatment): not affected
- expression of mucosal defense genes Occludin and Muc2 ([2]; chronic Fex-treatment): increased expression
- FXR target genes in ileum including FGF15 [3]: induced multiple FXR target genes
- core body temperature and metabolic rate [3]: somewhat blunted increases
- fasting glucose levels and glucose tolerance [3]: moderate improvements
- key hepatic lipogenic genes and liver triglyceride content [3]: not affected
- serum BA levels [3]: lowered serum BA levels
- weight gain or insulin sensitivity [3]: no significant changes
- Fex-induced changes in gene expression and improvements in metabolic homeostasis [4]: abrogated
- TGR5 activation (luciferase activity) [5]: does not activate
- TGR5 activation (luciferase activity) ([5]; listed as fexaramine): fails to activate TGR5
